# Test results reported in ChEMBL document CHEMBL1129159, “Inhibition of protein phosphatase 2A by cyclic peptides modelled on the microcystin ring” (Bioorg Med Chem Lett, 1996).
# Numbered stars: 1 amine (or outer) side, 2 acyl side, 3 side chain; on linkers, the order of the positions; unused ones are H or OH. Bridge positions count the residues as written; N and C are the ends. Square brackets hold non-standard residues; d marks the D form. Peptide text beside a SMILES is read from it. Adda = CO[C@@H](Cc1ccccc1)[C@@H](C)/C=C(C)/C=C/[C@H](N[*:1])[C@H](C)C(=O)[*:2]; dAsp(3S-Me) = C[C@H](C(=O)[*:3])[C@@H](N[*:1])C(=O)[*:2]; d(γGlu) = O=C(O)[C@@H](CCC(=O)[*:2])N[*:1]; NMeDha = C=C(NC)C(=O)O
# Assay: Percentage inhibition of murine protein phosphatase 2A at 1 mM.
row,SMILES,inhibition [%]
1,CC(C)C[C@H](NC(=O)[C@@H](C)N)C(=O)N[C@H](CC(=O)O)C(=O)N[C@@H](C)C(=O)NCCC(=O)N[C@H](CCC(=O)O)C(=O)N[C@@H](CC(=O)O)C(N)=O,1
2,CC(C)C[C@H]1NC(=O)[C@H](C)NC(=O)[C@@H](C)NC(=O)CC[C@@H](C(=O)O)NC(=O)CCNC(=O)[C@@H](C)NC(=O)C[C@@H](C(=O)O)NC1=O,3
3,CC(C)C[C@H](NC(=O)[C@@H](C)N)C(=O)NCCC(=O)N[C@@H](C)C(=O)N[C@@H](CC(=O)O)C(=O)N[C@@H](CCC(=O)N[C@@H](C)C(=O)O)C(=O)O,12
4,C[C@H](NC(=O)[C@@H](CC(=O)O)NC(=O)[C@H](C)NC(=O)[C@@H](CCC(=O)O)NC(=O)CCN)C(=O)O,30
5,CC(C)C[C@H](NC(=O)[C@@H](C)N)C(=O)N[C@H](CC(=O)O)C(=O)N[C@@H](C)C(=O)N[C@@H](CS)C(=O)N[C@H](CCC(=O)O)C(=O)N[C@@H](CC(=O)O)C(N)=O,17
6,CC(C)C[C@H]1NC(=O)[C@H](C)NC(=O)[C@@H](CC(=O)O)NC(=O)[C@H](CCC(=O)O)NC(=O)CCNC(=O)[C@@H](C)NC(=O)[C@H](CC(=O)O)NC1=O,21
7,CC(C)C[C@@H]1NC(=O)[C@@H](C)NC(=O)[C@H](CC(=O)O)NC(=O)[C@@H](CCC(=O)O)NC(=O)[C@H](CS)NC(=O)[C@H](C)NC(=O)[C@@H](CC(=O)O)NC1=O,86
8,CC(C)C[C@H](NC(=O)[C@@H](C)NC(=O)[C@H](C)NC(=O)CC[C@@H](NC(=O)[C@@H](N)CS)C(=O)O)C(=O)N[C@H](CC(=O)N[C@@H](C)C(=O)O)C(=O)O,19
9,CC(C)C[C@H](NC(=O)[C@@H](C)NC(=O)[C@H](C)NC(=O)CC[C@@H](NC(=O)CCN)C(=O)O)C(=O)N[C@H](CC(=O)N[C@@H](C)C(=O)O)C(=O)O,15
10,C[C@H](NC(=O)C[C@H](NC(=O)[C@H](C)NC(=O)CC[C@@H](NC(=O)CCN)C(=O)O)C(=O)O)C(=O)O,19
11,CC(C)C[C@H]1NC(=O)[C@H](C)NC(=O)[C@@H](CC(=O)O)NC(=O)CCCNC(=O)CCNC(=O)[C@@H](C)NC(=O)C[C@@H](C(=O)O)NC1=O,42
12,CC(C)C[C@H](NC(=O)[C@@H](C)N)C(=O)N[C@@H](CC(=O)N[C@@H](C)C(=O)N[C@@H](C)C(=O)N[C@@H](CCC(=O)N[C@@H](C)C(=O)O)C(=O)O)C(=O)O,22
13,CC(C)C[C@H](NC(=O)[C@@H](C)N)C(=O)N[C@@H](CC(=O)N[C@@H](C)C(=O)N[C@@H](CC(=O)O)C(=O)N[C@H](CCC(=O)N[C@@H](C)C(=O)O)C(=O)O)C(=O)O,21
14,CC(C)C[C@H](NC(=O)[C@@H](C)N)C(=O)NCCC(=O)N[C@@H](C)C(=O)N[C@H](CC(=O)O)C(=O)N[C@H](CCC(=O)O)C(=O)N[C@@H](C)C(=O)O,14
15,CC(C)C[C@H](NC(=O)[C@@H](C)N)C(=O)N[C@@H](CC(=O)N[C@@H](C)C(=O)N[C@@H](CS)C(=O)N[C@H](CCC(=O)N[C@@H](CC(=O)O)C(N)=O)C(=O)O)C(=O)O,18
16,CC(C)C[C@H](NC(=O)[C@@H](C)NC(=O)[C@H](C)NC(=O)[C@@H](CCC(=O)O)NC(=O)[C@@H](N)CS)C(=O)N[C@H](CC(=O)O)C(=O)N[C@@H](C)C(=O)O,22
17,CC(C)C[C@H]1NC(=O)[C@H](C)NC(=O)[C@@H](CC(=O)O)NC(=O)CCCNC(=O)[C@@H](CS)NC(=O)[C@@H](C)NC(=O)C[C@@H](C(=O)O)NC1=O,45
18,CC(C)C[C@H](NC(=O)[C@@H](C)N)C(=O)N[C@H](CC(=O)O)C(=O)N[C@@H](C)C(=O)N[C@@H](CC(=O)O)C(=O)N[C@H](CCC(=O)O)C(=O)N[C@@H](C)C(=O)O,11
19,CC(C)C[C@H](NC(=O)[C@@H](C)N)C(=O)N[C@@H](CC(=O)N[C@@H](C)C(=O)NCCC(=O)N[C@H](CCC(=O)N[C@@H](CC(=O)O)C(N)=O)C(=O)O)C(=O)O,11
20,CC(C)C[C@H](NC(=O)[C@@H](C)N)C(=O)N[C@@H](CC(=O)N[C@@H](C)C(=O)NCCC(=O)N[C@H](CCC(=O)N[C@@H](C)C(=O)O)C(=O)O)C(=O)O,12
21,CC(C)C[C@H](NC(=O)[C@@H](C)NC(=O)[C@H](C)NC(=O)[C@@H](CCC(=O)O)NC(=O)CCN)C(=O)N[C@H](CC(=O)O)C(=O)N[C@@H](C)C(=O)O,16

# Assay: Compound was tested for inhibition of protein phosphatase 2A (PP2A).
row,SMILES,IC50 [mM]
1,C=C1C(=O)N[C@H](C)C(=O)N[C@@H](CC(C)C)C(=O)N[C@@H](C(=O)O)[C@H](C)C(=O)N[C@@H](CCCNC(=N)N)C(=O)N[C@@H](/C=C/C(C)=C/[C@H](C)[C@H](Cc2ccccc2)OC)[C@H](C)C(=O)N[C@@H](C(=O)O)CCC(=O)N1C [MICROCYSTIN-LR] (R[Adda][d(γGlu)][NMeDha][dA]L[dAsp(3S-Me)]-OH; lactam N-7),0.2
2,C[C@H](NC(=O)[C@@H](CC(=O)O)NC(=O)[C@H](C)NC(=O)[C@@H](CCC(=O)O)NC(=O)CCN)C(=O)O,10
3,CC(C)C[C@@H]1NC(=O)[C@@H](C)NC(=O)[C@H](CC(=O)O)NC(=O)[C@@H](CCC(=O)O)NC(=O)[C@H](CS)NC(=O)[C@H](C)NC(=O)[C@@H](CC(=O)O)NC1=O,0.5
4,CC(C)C[C@H]1NC(=O)[C@H](C)NC(=O)[C@@H](CC(=O)O)NC(=O)CCCNC(=O)[C@@H](CS)NC(=O)[C@@H](C)NC(=O)C[C@@H](C(=O)O)NC1=O,10
